From paper PMC12645437, “Orthogonal IMiD-Degron Pairs Induce Selective Protein Degradation in Cells” (ACS Chemical Biology, 2025)
Like-named read-outs stand apart in the source and are kept apart here. Each block holds one molecule with its values, some of them ahead of it.

Columns and labels:
Jurkat cells = test: TMTpro quantitative proteomics, 16 h; conditions: for Scaled value (to 150), replicate 01 / Scaled value (to 150), replicate 02 / Scaled value (to 150), replicate 03 / Log2(ratio) compound/UT / Ratio to untreated, replicate 01 / Ratio to untreated, replicate 02 / Ratio to untreated, replicate 03: Jurkat whole cell extracts; for Scaled value (to 150), replicate 01 / Scaled value (to 150), replicate 02 / Scaled value (to 150), replicate 03: TMTpro SPS-MS3; for Log2(ratio) compound/UT: Welch's t-test with FDR correction
Protocol: Quantitative proteomics screens were carried out in untransduced Jurkat cells, embryonic stem cells (ESCs), and the multiple myeloma cell line, MM.1S. We used Jurkat cells, as our work up to this point had employed this cell line, and we selected ESCs and MM.1S cells as they express known CRBN neosubstrates, including IKZF1, IKZF3, RAB28, RNF166, SALL4, ZFP91, and ZNF827.
Proteomics - cell lysis and protein digestion
The viability of Jurkat cells was tested after 16-h treatment with corresponding chemicals
viable cells in each condition. Next, ~10^7 cells per condition were collected by centrifugation (1000 rpm), washed twice with ice-cold PBS, and lysed in RIPA buffer [50 mM HEPES pH 7.4, 150 mM NaCl, 1% sodium deoxycholate, 1% NP-40, 0.1% SDS, 10 mM sodium pyrophosphate, 10 mM β-glycerophosphate, 2.5 mM MgCl2, 200 µM TCEP, phosphatase and protease inhibitor cocktail (in-house)], to produce whole cell extracts. Whole-cell extracts were sonicated, and protein concentrations were determined using the Bradford assay. Protein extracts (100 µg) were subjected to disulfide bond reduction with 5 mM TCEP (10 min) and alkylation with 25 mM chloroacetamide (20 min). Methanol–chloroform precipitation was performed prior to protease digestion. In brief, four parts of neat methanol were added to each sample and vortexed, one part chloroform was added to the sample and vortexed, and finally, three parts water was added to the sample and vortexed. The sample was centrifuged at 8000 rpm for 5 min at room temperature and subsequently washed twice with 100% methanol. Samples were resuspended in 100 mM EPPS pH8.5 containing
0.1% RapiGest and digested at 37 °C for 6 h with trypsin at a 100:1 protein-to-protease ratio.
Samples were then subjected to TMTpro
labeling. The preparation of MM1S cell extracts was conducted using the same procedure as for
Jurkat cells. ESC cells were plated onto 6 cm dishes 24 hours prior to the chemical treatment.
Following the chemical treatment, the cells on the dish were washed with DPBS four times, after
which RIPA buffer was added directly to the dish, and the lysate was collected using a scraper.
The whole cell lysates were then processed similarly to the Jurkat cell lysates.
Proteomics - Tandem mass tag labeling
Proline-based reporter isobaric Tandem Mass Tag (TMTpro) labeling of dried peptide samples
resuspended in 100 mM EPPS pH 8.5, was carried out as follows. TMTpro reagent was added to
samples (100 µg peptide), along with acetonitrile, to achieve a final acetonitrile concentration of
approximately 30% (v/v). Following incubation at room temperature for 1 h, the labeling efficiency
of a small aliquot was tested. The reaction was then quenched with hydroxylamine to a final
concentration of 0.5% (v/v) for 15 min. The TMTpro-labeled samples were pooled together at a
1:1 ratio. The sample was vacuum centrifuged to near dryness and subjected to C18 solid-phase
The dried TMTpro-labeled sample was resuspended in 100 μL of 10 mM NH4HCO3 pH 8.0 and
fractionated using basic pH reverse phase HPLC 40. Briefly, samples were offline fractionated over
a 90 min run, into 96 fractions by high pH reverse-phase HPLC (Agilent LC1260) through an aeris
peptide xb-c18 column (Phenomenex; 250 mm × 3.6 mm) for total proteome with mobile phase A
containing 5% acetonitrile and 10 mM NH4HCO3, and mobile phase B containing 90% acetonitrile

[1] = molecular target: T1, Q147A mutant degron (ANQS) fused to EGFP (Homo sapiens, UniProt Q96SW2+Q9UKT9, Q147A); test: Ratiometric EGFP:mCherry flow cytometry degradation assay, 18 h; assay type: cell-based; conditions: Jurkat, read-out: DMax Q147A/%
T1 construct: pLVX-Sprout-IKZF3 130-189aa Q147A (ANQS); expressed in transfected cells
T1 sequence (Q9UKT9 130-189 Q147A): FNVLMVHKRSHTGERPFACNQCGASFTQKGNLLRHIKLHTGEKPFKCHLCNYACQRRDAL
T1 sequence (Q96SW2 whole entry, the tested form may be a part): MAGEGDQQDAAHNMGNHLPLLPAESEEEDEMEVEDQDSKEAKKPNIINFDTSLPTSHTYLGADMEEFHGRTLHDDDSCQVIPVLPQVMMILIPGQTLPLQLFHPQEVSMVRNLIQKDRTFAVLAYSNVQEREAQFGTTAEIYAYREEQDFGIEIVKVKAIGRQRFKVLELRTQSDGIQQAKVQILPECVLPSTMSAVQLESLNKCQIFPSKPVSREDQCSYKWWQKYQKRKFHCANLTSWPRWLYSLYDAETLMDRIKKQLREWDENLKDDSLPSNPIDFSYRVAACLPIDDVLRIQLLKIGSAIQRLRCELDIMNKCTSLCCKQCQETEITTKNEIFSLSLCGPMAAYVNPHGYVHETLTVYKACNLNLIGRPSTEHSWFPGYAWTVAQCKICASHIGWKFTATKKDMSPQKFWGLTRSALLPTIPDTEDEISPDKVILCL
T1 sequence (Q16531 whole entry partner, the tested form may be a part): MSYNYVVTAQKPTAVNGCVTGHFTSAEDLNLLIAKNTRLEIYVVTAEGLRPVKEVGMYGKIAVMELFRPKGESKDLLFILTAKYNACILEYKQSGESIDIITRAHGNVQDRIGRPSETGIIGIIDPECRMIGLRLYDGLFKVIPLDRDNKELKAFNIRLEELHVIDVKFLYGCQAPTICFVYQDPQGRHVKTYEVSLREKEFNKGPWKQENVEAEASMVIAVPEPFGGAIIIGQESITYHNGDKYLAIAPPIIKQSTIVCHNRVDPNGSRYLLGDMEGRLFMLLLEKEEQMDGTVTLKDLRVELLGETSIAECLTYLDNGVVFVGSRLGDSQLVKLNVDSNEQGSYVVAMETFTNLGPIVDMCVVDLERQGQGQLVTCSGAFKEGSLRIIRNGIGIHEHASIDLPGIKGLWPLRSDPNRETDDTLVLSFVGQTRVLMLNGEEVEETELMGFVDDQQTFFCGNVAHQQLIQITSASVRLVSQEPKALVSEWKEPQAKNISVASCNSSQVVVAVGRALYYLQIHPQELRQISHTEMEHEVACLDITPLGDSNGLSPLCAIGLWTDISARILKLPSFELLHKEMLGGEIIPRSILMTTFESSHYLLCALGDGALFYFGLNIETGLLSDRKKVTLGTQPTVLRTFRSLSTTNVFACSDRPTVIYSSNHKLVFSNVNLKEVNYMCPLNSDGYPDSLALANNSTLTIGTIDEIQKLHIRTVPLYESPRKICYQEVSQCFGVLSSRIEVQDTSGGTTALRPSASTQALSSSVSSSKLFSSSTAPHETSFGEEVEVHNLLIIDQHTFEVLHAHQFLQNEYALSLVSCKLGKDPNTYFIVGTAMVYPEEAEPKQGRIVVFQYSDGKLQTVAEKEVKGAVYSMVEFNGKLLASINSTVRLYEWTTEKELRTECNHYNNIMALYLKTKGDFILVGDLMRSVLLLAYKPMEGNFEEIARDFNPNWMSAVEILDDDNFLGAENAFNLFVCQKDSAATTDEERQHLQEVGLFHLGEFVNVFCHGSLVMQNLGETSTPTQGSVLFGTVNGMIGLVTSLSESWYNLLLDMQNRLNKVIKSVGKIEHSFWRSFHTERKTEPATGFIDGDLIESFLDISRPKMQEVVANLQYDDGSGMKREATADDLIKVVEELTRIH

[2] = protein AADAT isoform 2 (Q8N5Z0-2)

Compound: CN1CCN(c2ccc3c(c2)C(=O)N(C2CCC(=O)NC2=O)C3=O)CC1 (centres unmarked) [Cmpd23]
- Scaled value (to 150), replicate 01 (Jurkat cells; protein A2M (P01023)): 8.458
- Scaled value (to 150), replicate 02 (Jurkat cells; protein A2M (P01023)): 9.12
- Scaled value (to 150), replicate 03 (Jurkat cells; protein A2M (P01023)): 12.2998
- Scaled value (to 150), replicate 01 (Jurkat cells; protein AAAS (Q9NRG9)): 10.4661
- Scaled value (to 150), replicate 02 (Jurkat cells; protein AAAS (Q9NRG9)): 9.826
- Scaled value (to 150), replicate 03 (Jurkat cells; protein AAAS (Q9NRG9)): 10.0212
- Scaled value (to 150), replicate 01 (Jurkat cells; protein AACS (Q86V21)): 9.826
- Scaled value (to 150), replicate 02 (Jurkat cells; protein AACS (Q86V21)): 9.749
- Scaled value (to 150), replicate 03 (Jurkat cells; protein AACS (Q86V21)): 9.8
- Scaled value (to 150), replicate 01 (Jurkat cells; [2]): 10.0867
- Scaled value (to 150), replicate 02 (Jurkat cells; [2]): 10.5129
- Scaled value (to 150), replicate 03 (Jurkat cells; [2]): 9.582
- Log2(ratio) compound/UT (Jurkat cells; protein A2M (P01023)): -0.3516
- Ratio to untreated, replicate 01 (Jurkat cells; protein A2M (P01023)): 0.6228
- Ratio to untreated, replicate 02 (Jurkat cells; protein A2M (P01023)): 0.6715
- Ratio to untreated, replicate 03 (Jurkat cells; protein A2M (P01023)): 0.9057
- Log2(ratio) compound/UT (Jurkat cells; protein AAAS (Q9NRG9)): -0.01283
- Ratio to untreated, replicate 01 (Jurkat cells; protein AAAS (Q9NRG9)): 1.017
- Ratio to untreated, replicate 02 (Jurkat cells; protein AAAS (Q9NRG9)): 0.9547
- Ratio to untreated, replicate 03 (Jurkat cells; protein AAAS (Q9NRG9)): 0.9736
- Log2(ratio) compound/UT (Jurkat cells; protein AACS (Q86V21)): -0.01545
- Ratio to untreated, replicate 01 (Jurkat cells; protein AACS (Q86V21)): 0.9811
- Ratio to untreated, replicate 02 (Jurkat cells; protein AACS (Q86V21)): 0.9735
- Ratio to untreated, replicate 03 (Jurkat cells; protein AACS (Q86V21)): 0.9785
- Log2(ratio) compound/UT (Jurkat cells; [2]): 0.05616
- Ratio to untreated, replicate 01 (Jurkat cells; [2]): 1.033
- Ratio to untreated, replicate 02 (Jurkat cells; [2]): 1.076
- Ratio to untreated, replicate 03 (Jurkat cells; [2]): 0.9809

Compound: O=C1CCC(N2C(=O)c3cccc(O)c3C2=O)C(=O)N1 (centres unmarked) [Compound 4]
- Dmax [1]: 46%

Compound: COc1cccc2c1C(=O)N(C1CCC(=O)NC1=O)C2=O (centres unmarked) [Compound 6]
- Dmax ([1]; 18 h, Fig 2B): 75%

Compound: O=C1CCC(N2C(=O)c3cccc(F)c3C2=O)C(=O)N1 (centres unmarked) [Compound 8]
- Dmax ([1]; 18 h, Fig 2B): 57%

Compound: O=C1CCC(N2C(=O)c3cccc(Cl)c3C2=O)C(=O)N1 (centres unmarked) [Compound 10]
- Dmax ([1]; 18 h, Fig 2B): 88%

Compound: O=C1CCC(N2C(=O)c3cccc(Br)c3C2=O)C(=O)N1 (centres unmarked) [Compound 12]
- Dmax ([1]; 18 h, Fig 2B): 66%

Compound: Cc1cccc2c1C(=O)N(C1CCC(=O)NC1=O)C2=O (centres unmarked) [Compound 16]
- Dmax ([1]; 18 h, Fig 2B): 87%

Compound: O=C1CCC(N2C(=O)c3ccc(-c4ccccc4)cc3C2=O)C(=O)N1 (centres unmarked) [Compound 20]
- Dmax ([1]; 18 h, Fig 2B): 66%

Compound: CCNc1cccc2c1C(=O)N(C1CCC(=O)NC1=O)C2=O (centres unmarked) [Compound 24]
- Dmax ([1]; 18 h, Fig 2B): 96%

Compound: O=C1CCC(N2C(=O)c3cccc(NCc4ccccc4)c3C2=O)C(=O)N1 (centres unmarked) [Compound 26]
- Dmax ([1]; 18 h, Fig 2B): 95%

Compound: O=C1CCC(N2C(=O)c3cccc(NCc4cccnc4)c3C2=O)C(=O)N1 (centres unmarked) [Compound 27]
- Dmax ([1]; 18 h, Fig 2B): 93%

Compound: Cc1ccccc1CNc1cccc2c1C(=O)N(C1CCC(=O)NC1=O)C2=O (centres unmarked) [Compound 28]
- Dmax ([1]; 18 h, Fig 2B): 94%

Compound: O=C1CCC(N2C(=O)c3cccc(OCc4ccccc4)c3C2=O)C(=O)N1 (centres unmarked) [Compound 30]
- Dmax ([1]; 18 h, Fig 2B): 85%

Compound: O=C1CCC(N2C(=O)c3cccc(OCc4cccnc4)c3C2=O)C(=O)N1 (centres unmarked) [Compound 31]
- Dmax ([1]; 18 h, Fig 2B): 82%

Compound: Cc1ccccc1COc1cccc2c1C(=O)N(C1CCC(=O)NC1=O)C2=O (centres unmarked) [Compound 32]
- Dmax ([1]; 18 h, Fig 2B): 65%

Compound: O=C1CCC(N2C(=O)c3cccc(OC(c4ccccc4)c4ccccc4)c3C2=O)C(=O)N1 (centres unmarked) [Compound 34]
- Dmax ([1]; 18 h, Fig 2B): 90%

Compound: O=C1CCC(N2C(=O)c3cccnc3C2=O)C(=O)N1 (centres unmarked) [Compound 35]
- Dmax ([1]; 18 h, Fig 2B): 60%

Compound: O=C1CCC(N2C(=O)c3ccncc3C2=O)C(=O)N1 (centres unmarked) [Compound 36]
- Dmax ([1]; 18 h, Fig 2B): 91%

Compound: Nc1cccc2c1CN(C1CCC(=O)NC1=O)C2=O (centres unmarked) [lenalidomide]
- Scaled value (to 150), replicate 01 (Jurkat cells; protein A2M (P01023)): 10.2473
- Scaled value (to 150), replicate 02 (Jurkat cells; protein A2M (P01023)): 8.044
- Scaled value (to 150), replicate 03 (Jurkat cells; protein A2M (P01023)): 8.233
- Scaled value (to 150), replicate 01 (Jurkat cells; protein AAAS (Q9NRG9)): 9.75
- Scaled value (to 150), replicate 02 (Jurkat cells; protein AAAS (Q9NRG9)): 10.198
- Scaled value (to 150), replicate 03 (Jurkat cells; protein AAAS (Q9NRG9)): 10.3119
- Scaled value (to 150), replicate 01 (Jurkat cells; protein AACS (Q86V21)): 10.2128
- Scaled value (to 150), replicate 02 (Jurkat cells; protein AACS (Q86V21)): 10.0368
- Scaled value (to 150), replicate 03 (Jurkat cells; protein AACS (Q86V21)): 9.972
- Scaled value (to 150), replicate 01 (Jurkat cells; [2]): 9.894
- Scaled value (to 150), replicate 02 (Jurkat cells; [2]): 10.004
- Scaled value (to 150), replicate 03 (Jurkat cells; [2]): 10.2911
- proteins significantly degraded (quantitative proteomics) (Jurkat cells; Jurkat, 1 μM, 16 h, Welch's t test): at least 6 proteins

Second part, the molecule after the results:

- Dmax ([1]; 18 h, Fig 2B): 90%
Compound: Nc1ccc2c(c1)C(=O)N(C1CCC(=O)NC1=O)C2=O (centres unmarked) [Compound 3]

- Dmax ([1]; 18 h, Fig 2B): 82%
Compound: COc1ccc2c(c1)C(=O)N(C1CCC(=O)NC1=O)C2=O (centres unmarked) [Compound 7]

- Dmax ([1]; 18 h, Fig 2B): 89%
Compound: O=C1CCC(N2C(=O)c3ccc(F)cc3C2=O)C(=O)N1 (centres unmarked) [Compound 9]

- Dmax ([1]; 18 h, Fig 2B): 37%
Compound: O=C1CCC(N2C(=O)c3ccc(Cl)cc3C2=O)C(=O)N1 (centres unmarked) [Compound 11]

- Dmax ([1]; 18 h, Fig 2B): 56%
Compound: O=C1CCC(N2C(=O)c3ccc(Br)cc3C2=O)C(=O)N1 (centres unmarked) [Compound 13]

- Dmax ([1]; 18 h, Fig 2B): 86%
Compound: O=C1CCC(N2C(=O)c3cccc(I)c3C2=O)C(=O)N1 (centres unmarked) [Compound 14]

- Dmax ([1]; 18 h, Fig 2B): 77%
Compound: O=C1CCC(N2C(=O)c3ccc(I)cc3C2=O)C(=O)N1 (centres unmarked) [Compound 15]

- Dmax ([1]; 18 h, Fig 2B): 72%
Compound: Cc1ccc2c(c1)C(=O)N(C1CCC(=O)NC1=O)C2=O (centres unmarked) [Compound 17]

- Dmax ([1]; 18 h, Fig 2B): 91%
Compound: O=C1CCC(N2C(=O)c3ccc(C(F)(F)F)cc3C2=O)C(=O)N1 (centres unmarked) [Compound 18]

- Dmax ([1]; 18 h, Fig 2B): 86%
Compound: CN(C)c1ccc2c(c1)C(=O)N(C1CCC(=O)NC1=O)C2=O (centres unmarked) [Compound 21]
